Assay results reported in US20120202847A1, “Novel Tetrahydroisoquinoline Compounds” (priority 2009, published 2012).

Each compound was assayed against T1, DGAT1 enzyme (Homo sapiens, UniProt O75907) (assay: DGAT1 inhibitory activity test). Details: test compound concentration of 0.05 μg/ml; [14C]-oleoyl-CoA, 23° C., 30 minutes; read-out: Inhibitory Rate.
T1 construct: made in house
T1 sequence (O75907 1-488): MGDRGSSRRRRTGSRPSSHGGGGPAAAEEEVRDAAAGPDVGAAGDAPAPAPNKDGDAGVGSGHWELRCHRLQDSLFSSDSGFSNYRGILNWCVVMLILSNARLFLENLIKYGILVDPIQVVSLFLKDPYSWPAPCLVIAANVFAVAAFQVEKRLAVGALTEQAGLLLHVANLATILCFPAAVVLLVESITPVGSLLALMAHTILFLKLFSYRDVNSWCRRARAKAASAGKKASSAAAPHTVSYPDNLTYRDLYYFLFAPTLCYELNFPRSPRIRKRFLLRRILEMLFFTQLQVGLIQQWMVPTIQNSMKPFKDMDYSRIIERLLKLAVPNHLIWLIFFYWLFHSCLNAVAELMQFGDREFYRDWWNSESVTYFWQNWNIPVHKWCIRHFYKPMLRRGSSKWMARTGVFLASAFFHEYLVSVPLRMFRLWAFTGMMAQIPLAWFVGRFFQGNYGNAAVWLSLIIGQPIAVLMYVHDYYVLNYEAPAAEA
Type: biochemical
Protocol: (1) Preparation of DGAT1 Enzyme
DGAT1 enzyme was prepared and stored according to the method described in US2007/0249620.
(2) DGAT1 Inhibitory Activity Test
A reaction solution having the following composition was incubated at room temperature (23° C.) for 30 minutes: 175 mM Tris-HCl (pH 8.0), 8 mM MgCl2, 1 mg/ml BSA, 0.3 mM 1,2-dioleoyl-sn-glycerol (10-fold concentration of EtOH solution, 10% added), 10 μM [^14C]-oleoyl-CoA (approximately 50 mCi/mmol), 0.5% Triton X-100, the DGAT1 enzyme (10 μg) obtained in Test Example 1(1), and a test compound or vehicle (DMSO/MeOH, 7:3 solution, 5% added), 50 μl in total. A reaction stop solution […] consisting of isopropanol/1-heptane/water (80:20:2, v/v/v) was added to the reaction solution and stirred. Subsequently, water […] and 1-heptane (100 μl) were added thereto and stirred. The 1-heptane layer […] was spotted onto a TLC plate and developed with a developing solvent consisting of 1-hexane/diethyl ether/acetic acid (85:15:1, v/v/v). The radioactivity of the triglyceride fraction was quantified using BAS2500 Bio Image Analyzer (FUJIFILM) and compared with the control. The inhibitory activity of the test compound was calculated according to the formula shown below. In this context, the radioactivity at no reaction (0 minute incubation) was used as background.
Inhibitory Rate=100−[(Radioactivity of sample supplemented with test compound)−(Background)]/[(Radioactivity of control)−(Background)]×100

inhibition at 0.05 µg/mL | Structure (SMILES)
≥ 50% | O=C(O)C[C@H]1CC[C@H](OC(=O)N2CCc3cc(NC(=O)Nc4ccccc4Cl)ccc3C2)CC1 [Example 2, trans-6-[3-(2-chloro-phenyl)-ureido]-3,4-dihydro-1H-isoquinoline-2-carboxylic acid 4-carboxymethyl-cyclohexyl ester]
≥ 50% | O=C(O)C[C@H]1CC[C@H](OC(=O)N2CCc3cc(NC(=O)Nc4c(F)cccc4C(F)(F)F)ccc3C2)CC1 [Example 25, trans-6-[3-(2-fluoro-6-trifluoromethyl-phenyl)-ureido]-3,4-dihydro-1H-isoquinoline-2-carboxylic acid 4-carboxymethyl-cyclohexyl ester]
≥ 50% | O=C(O)C[C@H]1CC[C@H](OC(=O)N2CCc3cc(NC(=O)Nc4ccc(Cl)c(Cl)c4)ccc3C2)CC1 [Example 40, trans-6-[3-(3,4-dichloro-phenyl)-ureido]-3,4-dihydro-1H-isoquinoline-2-carboxylic acid 4-carboxymethyl-cyclohexyl ester]
≥ 50% | O=C(O)C[C@H]1CC[C@H](OC(=O)N2CCc3cc(NC(=O)Nc4cc(Cl)cc(Cl)c4)ccc3C2)CC1 [Example 43, trans-6-[3-(3,5-dichloro-phenyl)-ureido]-3,4-dihydro-1H-isoquinoline-2-carboxylic acid 4-carboxymethyl-cyclohexyl ester]
≥ 50% | O=C(O)C[C@H]1CC[C@H](OC(=O)N2CCc3cc(NC(=O)Nc4ccc(F)c(F)c4F)ccc3C2)CC1 [Example 14, trans-6-[3-(2,3,4-trifluoro-phenyl)-ureido]-3,4-dihydro-1H-isoquinoline-2-carboxylic acid 4-carboxymethyl-cyclohexyl ester]
≥ 50% | Cc1cccc(F)c1NC(=O)Nc1ccc2c(c1)CCN(C(=O)O[C@H]1CC[C@H](CC(=O)O)CC1)C2 [Example 9, trans-6-[3-(2-fluoro-6-methyl-phenyl)-ureido]-3,4-dihydro-1H-isoquinoline-2-carboxylic acid 4-carboxymethyl-cyclohexyl ester]
≥ 50% | Cc1ccc(NC(=O)Nc2ccc3c(c2)CCN(C(=O)O[C@H]2CC[C@H](CC(=O)O)CC2)C3)c(C)c1 [Example 23, trans-6-[3-(2,4-dimethyl-phenyl)-ureido]-3,4-dihydro-1H-isoquinoline-2-carboxylic acid 4-carboxymethyl-cyclohexyl ester]
≥ 50% | Cc1cc(C)cc(NC(=O)Nc2ccc3c(c2)CCN(C(=O)O[C@H]2CC[C@H](CC(=O)O)CC2)C3)c1 [Example 33, trans-6-[3-(3,5-dimethyl-phenyl)-ureido]-3,4-dihydro-1H-isoquinoline-2-carboxylic acid 4-carboxymethyl-cyclohexyl ester]
≥ 50% | O=C(O)C[C@H]1CC[C@H](OC(=O)N2CCc3cc(NC(=O)Nc4ccc(C(F)(F)F)cc4Cl)ccc3C2)CC1 [Example 29, trans-6-[3-(2-chloro-4-trifluoromethyl-phenyl)-ureido]-3,4-dihydro-1H-isoquinoline-2-carboxylic acid 4-carboxymethyl-cyclohexyl ester]
≥ 50% | Cc1ccc(NC(=O)Nc2ccc3c(c2)CCN(C(=O)O[C@H]2CC[C@H](CC(=O)O)CC2)C3)c(F)c1 [Example 8, trans-6-[3-(2-fluoro-4-methyl-phenyl)-ureido]-3,4-dihydro-1H-isoquinoline-2-carboxylic acid 4-carboxymethyl-cyclohexyl ester]
≥ 50% | O=C(O)C[C@H]1CC[C@H](OC(=O)N2CCc3cc(NC(=O)Nc4cc(F)ccc4F)ccc3C2)CC1 [Example 4, trans-6-[3-(2,5-difluoro-phenyl)-ureido]-3,4-dihydro-1H-isoquinoline-2-carboxylic acid 4-carboxymethyl-cyclohexyl ester]
≥ 50% | O=C(O)C[C@H]1CC[C@H](OC(=O)N2CCc3cc(NC(=O)Nc4c(F)cccc4F)ccc3C2)CC1 [Example 5, trans-6-[3-(2,6-difluoro-phenyl)-ureido]-3,4-dihydro-1H-isoquinoline-2-carboxylic acid 4-carboxymethyl-cyclohexyl ester]
≥ 50% | Cc1ccc(NC(=O)Nc2ccc3c(c2)CCN(C(=O)O[C@H]2CC[C@H](CC(=O)O)CC2)C3)cc1Cl [Example 34, trans-6-[3-(3-chloro-4-methyl-phenyl)-ureido]-3,4-dihydro-1H-isoquinoline-2-carboxylic acid 4-carboxymethyl-cyclohexyl ester]

The compounds below were run on C57BL/6N mice (assay: Feeding suppressant activity on a high-fat diet). Details: male C57BL/6N mice, oral dose of 3 mg/kg; food intake 6 hours after initiation of high-fat diet feeding.
Type: in vivo
Protocol: Male C57BL/6N mice (7-12 weeks old, body weight: 17-25 g, Charles River Laboratories Japan Inc.) were individually housed and fed on a high-fat diet (fat content: 45 kcal %: Research Diets, Inc. D12451) for 1 week or longer for acclimatization. Based on the food intake during the period, the animals were equally assigned to experimental groups and fasted overnight. Then, a vehicle (0.5% methylcellulose) or each test compound (1 to 10 mg/kg) suspended in vehicle was orally administered (10 mL/kg) to each group. 30 minutes after administration, the animals were fed on a high-fat diet, and the food intake was measured 6 hours after initiation of feeding. The feeding suppressant activity of each test compound was calculated based on the equation shown below.
Feeding suppressant activity(%)=[(Food intake of Vehicle group)−(Food intake of each test compound group)]/[(Food intake of Vehicle group)]×100

Structure (SMILES) | Feeding suppressant activity
O=C(O)C[C@H]1CC[C@H](OC(=O)N2CCc3cc(NC(=O)Nc4ccccc4Cl)ccc3C2)CC1 [Example 2, trans-6-[3-(2-chloro-phenyl)-ureido]-3,4-dihydro-1H-isoquinoline-2-carboxylic acid 4-carboxymethyl-cyclohexyl ester] | 70%
